From ChEMBL document CHEMBL5113373, “Tryptophan derived natural marine alkaloids and synthetic derivatives as promising antimicrobial agents” (Eur J Med Chem, 2021)
pEC50, pIC50: −log10 of the molar value. In brackets after ≈: the same amount, converted by molar mass.

Legend:
Bacillus subtilis = assay: Antibacterial activity against Bacillus subtilis assessed as bacterial growth inhibition; format: functional, organism-based
Escherichia coli [1] = assay: Antibacterial activity against Escherichia coli assessed as bacterial growth inhibition; format: functional
Candida albicans [2] = assay: Antimicrobial activity against Candida albicans assessed as microbial growth inhibition measured after 24 hrs by agar dilution method; format: functional
Candida albicans [3] = assay: Antifungal activity against Candida albicans assessed as fungal growth inhibition; format: functional, organism-based
Acinetobacter baumannii [4] = assay: Antibacterial activity against Acinetobacter baumannii ATCC 19606 assessed as bacterial growth inhibition incubated for 24 hrs by broth micro dilution method; format: functional
Aspergillus niger = assay: Antifungal activity against Aspergillus niger assessed as fungal growth inhibition; format: functional, organism-based
Cryptococcus neoformans = assay: Antifungal activity against Cryptococcus neoformans assessed as fungal growth inhibition; format: functional, organism-based
Candida albicans [5] = assay: Antifungal activity against Candida albicans ATCC 2091 assessed as fungal growth inhibition incubated for 24 hrs by agar diffusion method; format: functional
Staphylococcus aureus [6] = assay: Antibacterial activity against Staphylococcus aureus ATCC 6538 assessed as bacterial growth inhibition incubated for 24 hrs by agar diffusion method; format: functional
Pseudomonas aeruginosa = assay: Antibacterial activity against Pseudomonas aeruginosa ATCC 9027 assessed as bacterial growth inhibition incubated for 24 hrs by agar diffusion method; format: functional
[7] = tested on: Trichophyton mentagrophytes; assay: Antifungal activity against Trichophyton mentagrophytes assessed as fungal growth inhibition; format: functional, organism-based
Staphylococcus aureus [8] = assay: Antibacterial activity against Staphylococcus aureus ATCC 16339 assessed as bacterial growth inhibition incubated for 24 hrs by broth micro dilution method; format: functional
Fusarium oxysporum = assay: Antifungal activity against Fusarium oxysporum Momordicae assessed as fungal growth inhibition incubated for 3 days by broth micro dilution method; format: functional; settings: 72 h, time 3 day
Acinetobacter baumannii [9] = assay: Antibacterial activity against Acinetobacter baumannii ATCC 15122 assessed as bacterial growth inhibition incubated for 24 hrs by broth micro dilution method; format: functional
Klebsiella pneumoniae = assay: Antibacterial activity against Klebsiella pneumoniae ATCC 14578 assessed as bacterial growth inhibition incubated for 24 hrs by broth micro dilution method; format: functional
Mycolicibacterium phlei = assay: Antibacterial activity against Mycobacterium phlei assessed as bacterial growth inhibition; format: functional, organism-based
Micrococcus luteus = assay: Antibacterial activity against Micrococcus luteus assessed as bacterial growth inhibition; format: functional, organism-based
Staphylococcus aureus [10] = assay: Antibiofilm activity against Staphylococcus aureus ATCC 25923 assessed as inhibition of biofilm formation incubated for 24 hrs by crystal violet method; format: functional, organism-based; settings: ATCC 25923, 24 h
[11] = tested on: Mycobacterium tuberculosis; assay: Antibacterial activity against […] assessed as bacterial growth inhibition; format: functional
Staphylococcus aureus [12] = assay: Antimicrobial activity against Staphylococcus aureus ATCC 25923 assessed as zone of inhibition incubated for 24 hrs by disc diffusion method; format: functional
Candida albicans [13] = assay: Antimicrobial activity against Candida albicans ATCC 14053 assessed as zone of inhibition incubated for 24 hrs by disc diffusion method; format: functional
Escherichia coli [14] = assay: Antibacterial activity against Escherichia coli assessed as bacterial growth inhibition by agar dilution method; format: functional
Klebsiella aerogenes = assay: Antibacterial activity against Enterobacter aerogenes assessed as bacterial growth inhibition by agar dilution method; format: functional
Hepatitis C virus = assay: Antiviral activity against HCV J8CC infected in human Huh7.5 cells assessed as viral growth inhibition incubated for 48 hrs by light microscopy; format: functional, organism-based, Hepacivirus hominis; settings: Huh7.5, 48 h
Staphylococcus aureus [15] = assay: Antimicrobial activity against methicillin-resistant Staphylococcus aureus assessed as microbial growth inhibition by broth microdilution method; format: functional
[16] = Inhibition of Methicillin-resistant Staphylococcus aureus pyruvate kinase assessed as measuring absorbance of NADH coupled to L-LDH using phospho enol pyruvate in presence of ADP by spectrophotometry
Staphylococcus aureus [17] = assay: Antibacterial activity against Staphylococcus aureus assessed as bacterial growth inhibition; format: functional, organism-based
Escherichia coli [18] = assay: Antimicrobial activity against Escherichia coli assessed as microbial growth inhibition by microdilution method; format: functional
Candida albicans [19] = assay: Antimicrobial activity against Candida albicans assessed as microbial growth inhibition by microdilution method; format: functional

**Q.** What does the source list for `CO[C@@H]1c2c[nH]c3ccc(O)c(c23)C(c2c[nH]c3ccc(O)cc23)=N[C@@H]1C(C)=O`?
**A.** MIC (Bacillus subtilis): 41.1 µM (≈ 16 µg/mL); MIC (Escherichia coli [1]): 41.1 µM (≈ 16 µg/mL)

**Q.** Which MIC (Candida albicans [2]) does the source give for `O=C1N[C@H]2c3nc4ccccc4c(=O)n3[C@H]1C[C@@]1(O)c3ccccc3N3C(=O)C4(CC4)N2[C@@H]31` here?
**A.** Its MIC is 22.6 µM (≈ 9.98 µg/mL).

**Q.** With `Cn1c[n+](C)c(C(=O)c2nc(C(=O)O)cc3c2[nH]c2ccc(O)cc23)c1[S+](C)[O-]` (configuration not stated) as the compound, how does the pIC50 (Candida albicans [3]) read?
**A.** The pIC50 was 5.32.

**Q.** With `Brc1ccc2c(-c3c[nH]c(-c4c[nH]c5ccccc45)n3)c[nH]c2c1` [NORTOPSENTIN C] as the compound, how does the pIC50 (Candida albicans [3]) read?
**A.** Its pIC50 is 5.17.

**Q.** For `C[C@@H]1N[C@H]2N(C1=O)c1ccccc1[C@@]2(O)C[C@H](C(=O)O)n1cnc2ccccc2c1=O`, which MIC (Acinetobacter baumannii [4]) is on record?
**A.** The MIC was 14.9 µM (≈ 6.26 µg/mL).

**Q.** For `C[N+](C)(C)CC(c1c[nH]c2cc(Br)ccc12)c1c2ccnc3c2c(c2nc(CS(=O)(=O)[O-])oc12)NC=C3` (configuration not stated), which MIC (Aspergillus niger) is on record?
**A.** The MIC was 27.5 µM (≈ 16 µg/mL).

**Q.** What does the source list for `CSc1c(-c2c(-c3c[nH]c4ccc(O)cc34)c(=O)n3c4ccc(O)cc4c4cc(C(=O)O)nc2c43)[n+](C)cn1C`?
**A.** pIC50 (Cryptococcus neoformans): 4.84; pIC50 (Candida albicans [3]): 4.84

**Q.** What does the source list for `O=C(O)c1c(-c2c[nH]c3cc(O)ccc23)ncc2[nH]c3ccc(O)cc3c12`?
**A.** diameter of the inhibition zone (DIZ) (Candida albicans [5]): 9 mm; diameter of the inhibition zone (DIZ) (Staphylococcus aureus [6]): 10 mm; diameter of the inhibition zone (DIZ) (Pseudomonas aeruginosa): 7 mm

**Q.** With `O=C1CN=C(c2c[nH]c3ccc(O)cc23)c2c(O)ccc3[nH]cc1c23` as the compound, how does the pIC50 [7] read?
**A.** Its pIC50 is 4.32.

**Q.** For `O=C1N[C@]2(CO)c3[nH]c4ccccc4c3C[C@@H]1n1c2nc2ccccc2c1=O`, which MIC (Acinetobacter baumannii [4]) is on record?
**A.** The MIC was 16.8 µM (≈ 6.26 µg/mL).

**Q.** What about the MIC (Staphylococcus aureus [8]) of the same compound?
**A.** Its MIC is 16.8 µM (≈ 6.26 µg/mL).

**Q.** And the MIC (Fusarium oxysporum)?
**A.** Its MIC is 4 µM (≈ 1.49 µg/mL).

**Q.** What about the MIC (Acinetobacter baumannii [9]) of the same compound?
**A.** The MIC was 16.8 µM (≈ 6.26 µg/mL).

**Q.** What about the MIC (Klebsiella pneumoniae) of the same compound?
**A.** Its MIC is 16.8 µM (≈ 6.26 µg/mL).

**Q.** With `Cn1cc(C(=O)c2nc(C(=O)O)cc3c2[nH]c2ccc(O)cc23)[n+](C)c1` as the compound, how does the pIC50 (Cryptococcus neoformans) read?
**A.** Its pIC50 is 4.94.

**Q.** What about the pIC50 [7] of the same compound?
**A.** The pIC50 was 4.34.

**Q.** What about the pIC50 (Aspergillus niger) of the same compound?
**A.** The pIC50 was 4.64.

**Q.** And the pIC50 (Candida albicans [3])?
**A.** The pIC50 was 4.34.

**Q.** With `C=CC(C)(C)c1c(CCNC)c2ccccc2n1CC=C(C)C` as the compound, how does the pIC50 (Mycolicibacterium phlei) read?
**A.** The pIC50 was 5.11.

**Q.** What about the pIC50 (Micrococcus luteus) of the same compound?
**A.** Its pIC50 is 4.65.

**Q.** With `COCCn1cc(-c2nc(-c3cn(C)c4ccccc34)cs2)c2cc(F)ccc21` as the compound, how does the pIC50 (Staphylococcus aureus [10]) read?
**A.** Its pIC50 is 6.40.

**Q.** Which results are given for `O=C1N[C@@H](Cc2c[nH]c3ccccc23)C(=O)N2CCC[C@@H]12` [BREVIANAMIDE F]?
**A.** MIC [11]: 44.1 µM (≈ 12.5 µg/mL); diameter of the inhibition zone (DIZ) (Staphylococcus aureus [12]): 19 mm; diameter of the inhibition zone (DIZ) (Candida albicans [13]): 25 mm

**Q.** Which MIC (Escherichia coli [14]) does the source give for `CC(C)[C@H]1NC(=O)[C@@H]2CC3(C45C[C@H]6C(=O)N[C@H](C(C)C)C(=O)N6[C@H]4Nc4ccccc45)c4ccccc4N[C@@H]3N2C1=O` (some centres not stated) here?
**A.** The MIC was 44 µM (≈ 25 µg/mL).

**Q.** What about the MIC (Klebsiella aerogenes) of the same compound?
**A.** The MIC was 44 µM (≈ 25 µg/mL).

**Q.** With `CC1(C)C(=O)N2c3ccccc3[C@@]3(C[C@H]4n5c(nc6ccccc6c5=O)C(=O)C(C)(C)[C@@]4(O)O3)[C@@H]2N1S(C)(=O)=O` as the compound, how does the pEC50 (Hepatitis C virus) read?
**A.** Its pEC50 is 3.96.

**Q.** With `NC(=O)c1c(-c2c[nH]c3cc(O)ccc23)ncc2[nH]c3ccc(O)cc3c12` as the compound, how does the “diameter of the inhibition zone (DIZ)” value (Candida albicans [5]) read?
**A.** The value was 9 mm.

**Q.** What about the “diameter of the inhibition zone (DIZ)” value (Staphylococcus aureus [6]) of the same compound?
**A.** Its value is 10 mm.

**Q.** What about the “diameter of the inhibition zone (DIZ)” value (Pseudomonas aeruginosa) of the same compound?
**A.** The value was 7 mm.

**Q.** With `CC(C)[C@@H]1NC(=O)[C@@H](C[C@@]2(O)c3ccccc3N3C(=O)C(C)(C)N[C@@H]32)n2c1nc1ccccc1c2=O` as the compound, how does the pEC50 (Hepatitis C virus) read?
**A.** Its pEC50 is 3.89.

**Q.** Which results are given for `O=C1NC(C(=O)c2c[nH]c3ccc(O)cc23)c2c(O)ccc3[nH]cc(c23)C1=O` (configuration not stated)?
**A.** pIC50 [7]: 4.37; pIC50 (Aspergillus niger): 4.67

**Q.** For `O=C1NC[C@@H](c2c[nH]c3cc(Br)ccc23)N[C@H]1c1c[nH]c2cc(Br)ccc12` (relative stereo) [CIS-3,4-DIHYDROHAMACANTHIN B], which MIC (Staphylococcus aureus [15]) is on record?
**A.** The MIC was 0.016 µM (≈ 0.00781 µg/mL).

**Q.** And the pIC50 [16]?
**A.** The pIC50 was 5.29.

**Q.** With `C[C@@H]1NC(=O)[C@@H](Cc2c[nH]c3ccccc23)n2c1nc1ccccc1c2=O` [FUMIQUINAZOLINE F] as the compound, how does the MIC (Staphylococcus aureus [17]) read?
**A.** The MIC was 382 µM (≈ 137 µg/mL).

**Q.** What about the MIC (Micrococcus luteus) of the same compound?
**A.** The MIC was 276 µM (≈ 99 µg/mL).

**Q.** Which results are given for `Cc1cncc(Cc2c[nH]c3ccccc23)n1`?
**A.** MIC (Staphylococcus aureus [15]): 53.7 µM (≈ 12 µg/mL); MIC (Escherichia coli [18]): 35.8 µM; MIC (Candida albicans [19]): 62.7 µM

**Q.** With `Brc1ccc2c(-c3c[nH]c(-c4c[nH]c5cc(Br)ccc45)n3)c[nH]c2c1` [NORTOPSENTIN A] as the compound, how does the pIC50 (Candida albicans [3]) read?
**A.** Its pIC50 is 5.17.

**Q.** With `O=C(c1c[nH]c2ccc(O)cc12)[C@H](O)[C@@H](O)C(=O)c1c[nH]c2ccc(O)cc12` as the compound, how does the pIC50 [7] read?
**A.** The pIC50 was 4.38.

**Q.** And the pIC50 (Aspergillus niger)?
**A.** The pIC50 was 4.68.
